Measured values taken from ChEMBL document CHEMBL5465560, “Selectivity Literature for EUbOPEN Chemogenomic Library” (2024).

Tests used:
[1] = molecular target: Cyclin-dependent kinase-like 1 (Homo sapiens) (UniProt Q00532); test: Selectivity interaction (KinomeScan (DiscoverX)) EUB0000229b CDKL1; settings: at 10 µM
[2] = molecular target: ALK tyrosine kinase receptor (Homo sapiens, UniProt Q9UM73); test: Selectivity interaction (KinomeScan (DiscoverX)) EUB0000595a ALK; settings: at 10 µM
[3] = molecular target: Cyclin-dependent kinase 3 (Homo sapiens) (UniProt Q00526); test: Selectivity interaction (KinomeScan (DiscoverX)) EUB0000595a CDK3; settings: at 10 µM
Sequence of Cyclin-dependent kinase 3 (Homo sapiens) (Q00526 whole entry, looked up): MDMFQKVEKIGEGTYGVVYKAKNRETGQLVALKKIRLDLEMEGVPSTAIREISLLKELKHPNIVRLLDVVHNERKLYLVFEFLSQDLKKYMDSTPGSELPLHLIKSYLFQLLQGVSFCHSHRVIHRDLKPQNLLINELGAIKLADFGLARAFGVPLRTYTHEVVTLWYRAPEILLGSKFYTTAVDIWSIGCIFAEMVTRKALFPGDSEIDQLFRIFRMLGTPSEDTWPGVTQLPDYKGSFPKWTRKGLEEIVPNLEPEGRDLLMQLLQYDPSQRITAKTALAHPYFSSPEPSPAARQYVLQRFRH

[4] = molecular target: Serine/threonine-protein kinase N1 (Homo sapiens, UniProt Q16512); test: Selectivity interaction (KinomeScan (DiscoverX)) EUB0000045b PKN1
Sequence of Serine/threonine-protein kinase N1 (Q16512 2-942 limits assumed): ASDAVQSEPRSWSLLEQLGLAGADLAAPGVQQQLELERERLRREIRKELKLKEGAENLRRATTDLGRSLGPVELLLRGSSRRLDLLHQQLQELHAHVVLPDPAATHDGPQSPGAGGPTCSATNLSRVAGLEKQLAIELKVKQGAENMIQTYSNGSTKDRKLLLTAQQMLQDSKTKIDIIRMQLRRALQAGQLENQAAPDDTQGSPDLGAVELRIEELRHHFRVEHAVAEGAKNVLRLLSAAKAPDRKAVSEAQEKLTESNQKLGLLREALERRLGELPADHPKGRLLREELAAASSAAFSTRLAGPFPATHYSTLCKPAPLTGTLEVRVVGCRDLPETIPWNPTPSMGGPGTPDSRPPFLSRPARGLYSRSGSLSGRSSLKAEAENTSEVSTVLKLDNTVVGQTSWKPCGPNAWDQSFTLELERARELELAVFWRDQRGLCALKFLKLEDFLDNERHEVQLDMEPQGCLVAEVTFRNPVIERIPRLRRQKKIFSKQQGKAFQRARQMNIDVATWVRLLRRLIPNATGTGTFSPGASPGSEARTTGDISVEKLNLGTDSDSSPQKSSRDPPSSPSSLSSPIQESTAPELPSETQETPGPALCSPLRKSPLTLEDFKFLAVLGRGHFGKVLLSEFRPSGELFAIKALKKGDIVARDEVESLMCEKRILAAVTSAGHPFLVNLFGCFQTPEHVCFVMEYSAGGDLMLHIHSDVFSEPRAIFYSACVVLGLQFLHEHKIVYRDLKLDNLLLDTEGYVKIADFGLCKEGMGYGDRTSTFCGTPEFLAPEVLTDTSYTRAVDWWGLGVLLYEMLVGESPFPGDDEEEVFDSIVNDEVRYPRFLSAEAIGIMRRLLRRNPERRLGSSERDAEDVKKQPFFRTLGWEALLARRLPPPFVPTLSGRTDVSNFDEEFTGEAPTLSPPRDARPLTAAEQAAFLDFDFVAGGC

[5] = molecular target: T1, Serine/threonine-protein kinase Nek11 (Homo sapiens) (UniProt Q8NG66); test: Selectivity interaction (KinomeScan (DiscoverX)) EUB0001079a NEK11; settings: at 1 µM
T1 sequence (whole entry): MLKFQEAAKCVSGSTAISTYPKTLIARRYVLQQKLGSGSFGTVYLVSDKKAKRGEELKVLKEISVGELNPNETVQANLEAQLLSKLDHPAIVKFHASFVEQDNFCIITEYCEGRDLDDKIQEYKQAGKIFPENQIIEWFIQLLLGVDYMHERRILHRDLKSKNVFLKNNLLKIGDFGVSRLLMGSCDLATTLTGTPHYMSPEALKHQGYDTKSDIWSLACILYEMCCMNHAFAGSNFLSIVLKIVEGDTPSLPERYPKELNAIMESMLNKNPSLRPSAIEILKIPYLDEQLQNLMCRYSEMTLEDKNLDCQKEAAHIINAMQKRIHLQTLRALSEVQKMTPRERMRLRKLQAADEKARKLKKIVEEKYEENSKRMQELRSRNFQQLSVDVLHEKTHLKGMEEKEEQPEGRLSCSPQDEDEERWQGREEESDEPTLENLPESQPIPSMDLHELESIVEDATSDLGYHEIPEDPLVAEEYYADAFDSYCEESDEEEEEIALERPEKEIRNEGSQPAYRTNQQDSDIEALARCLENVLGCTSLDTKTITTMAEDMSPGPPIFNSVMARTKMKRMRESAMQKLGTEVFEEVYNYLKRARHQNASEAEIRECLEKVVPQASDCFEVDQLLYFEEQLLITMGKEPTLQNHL

[6] = molecular target: T2, Interleukin-1 receptor-associated kinase 3 (Homo sapiens) (UniProt Q9Y616); test: Selectivity interaction (KinomeScan (DiscoverX)) EUB0001049a IRAK3; settings: at 1 µM
T2 sequence (whole entry): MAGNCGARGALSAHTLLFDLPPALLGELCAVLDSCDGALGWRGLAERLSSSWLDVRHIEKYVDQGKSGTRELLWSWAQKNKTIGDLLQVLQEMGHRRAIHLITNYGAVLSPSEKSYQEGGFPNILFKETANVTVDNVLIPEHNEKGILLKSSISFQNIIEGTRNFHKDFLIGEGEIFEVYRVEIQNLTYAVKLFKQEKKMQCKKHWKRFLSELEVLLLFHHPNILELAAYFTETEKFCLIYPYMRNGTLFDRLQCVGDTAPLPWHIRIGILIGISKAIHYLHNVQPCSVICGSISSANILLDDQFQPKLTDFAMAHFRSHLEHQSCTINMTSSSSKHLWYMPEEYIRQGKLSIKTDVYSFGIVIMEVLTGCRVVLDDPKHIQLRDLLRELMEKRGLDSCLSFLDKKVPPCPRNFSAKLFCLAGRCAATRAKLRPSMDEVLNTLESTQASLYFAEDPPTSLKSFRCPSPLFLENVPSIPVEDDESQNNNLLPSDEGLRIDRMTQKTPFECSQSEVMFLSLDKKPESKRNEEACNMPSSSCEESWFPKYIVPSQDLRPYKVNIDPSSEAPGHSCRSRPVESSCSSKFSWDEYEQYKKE

[7] = molecular target: DNA-dependent protein kinase catalytic subunit (Homo sapiens) (UniProt P78527); test: Selectivity interaction (ActivX KiNativ screen (ex vivo kinase selectivity in human PBMCs)) EUB0001619a PRKDC; type: cell-based; settings: PBMC, at 1 µM
[8] = molecular target: T3, Ephrin type-B receptor 2 (Homo sapiens) (UniProt P29323); test: Selectivity interaction (KinomeScan (DiscoverX)) EUB0000607a EPHB2; settings: at 10 µM
T3 sequence (whole entry): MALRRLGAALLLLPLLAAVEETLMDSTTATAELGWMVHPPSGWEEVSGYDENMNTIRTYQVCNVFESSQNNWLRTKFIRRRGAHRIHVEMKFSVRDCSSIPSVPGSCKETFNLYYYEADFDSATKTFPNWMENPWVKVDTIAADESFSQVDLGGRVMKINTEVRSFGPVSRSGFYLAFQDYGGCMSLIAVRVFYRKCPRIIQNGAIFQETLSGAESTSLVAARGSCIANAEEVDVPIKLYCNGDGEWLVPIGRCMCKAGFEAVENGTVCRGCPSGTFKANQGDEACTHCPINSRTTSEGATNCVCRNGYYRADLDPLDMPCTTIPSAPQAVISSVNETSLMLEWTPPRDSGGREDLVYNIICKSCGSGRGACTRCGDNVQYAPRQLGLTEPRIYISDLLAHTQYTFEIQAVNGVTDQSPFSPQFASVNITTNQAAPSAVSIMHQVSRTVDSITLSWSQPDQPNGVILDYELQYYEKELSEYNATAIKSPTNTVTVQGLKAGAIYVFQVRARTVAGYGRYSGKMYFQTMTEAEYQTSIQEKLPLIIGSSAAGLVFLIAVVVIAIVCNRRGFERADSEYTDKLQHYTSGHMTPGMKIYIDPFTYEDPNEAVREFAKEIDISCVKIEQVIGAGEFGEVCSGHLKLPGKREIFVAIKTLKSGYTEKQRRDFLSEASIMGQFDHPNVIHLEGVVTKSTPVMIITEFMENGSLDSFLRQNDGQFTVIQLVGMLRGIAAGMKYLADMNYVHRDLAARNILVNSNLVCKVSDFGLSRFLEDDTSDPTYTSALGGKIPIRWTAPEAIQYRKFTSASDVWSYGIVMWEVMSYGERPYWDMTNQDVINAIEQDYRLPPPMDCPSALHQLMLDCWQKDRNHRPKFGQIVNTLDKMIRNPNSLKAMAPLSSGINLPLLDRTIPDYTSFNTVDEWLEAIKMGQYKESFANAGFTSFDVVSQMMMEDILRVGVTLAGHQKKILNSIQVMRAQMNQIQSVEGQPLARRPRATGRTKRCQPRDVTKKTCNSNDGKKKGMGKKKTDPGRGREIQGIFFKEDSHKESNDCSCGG

Insulin receptor = Insulin receptor (Homo sapiens, UniProt P06213); test: Selectivity interaction (KinomeScan (DiscoverX)) EUB0000607a INSR; settings: at 10 µM
[9] = molecular target: Mitogen-activated protein kinase kinase kinase 10 (Homo sapiens) (UniProt Q02779); test: Selectivity interaction (KinomeScan (DiscoverX)) EUB0000655a MAP3K10; settings: at 10 µM
[10] = molecular target: Myosin-IIIa (Homo sapiens) (UniProt Q8NEV4); test: Selectivity interaction (KinomeScan (DiscoverX)) EUB0000092b MYO3A; settings: at 10 µM
Sequence of Myosin-IIIa (Homo sapiens) (Q8NEV4 whole entry): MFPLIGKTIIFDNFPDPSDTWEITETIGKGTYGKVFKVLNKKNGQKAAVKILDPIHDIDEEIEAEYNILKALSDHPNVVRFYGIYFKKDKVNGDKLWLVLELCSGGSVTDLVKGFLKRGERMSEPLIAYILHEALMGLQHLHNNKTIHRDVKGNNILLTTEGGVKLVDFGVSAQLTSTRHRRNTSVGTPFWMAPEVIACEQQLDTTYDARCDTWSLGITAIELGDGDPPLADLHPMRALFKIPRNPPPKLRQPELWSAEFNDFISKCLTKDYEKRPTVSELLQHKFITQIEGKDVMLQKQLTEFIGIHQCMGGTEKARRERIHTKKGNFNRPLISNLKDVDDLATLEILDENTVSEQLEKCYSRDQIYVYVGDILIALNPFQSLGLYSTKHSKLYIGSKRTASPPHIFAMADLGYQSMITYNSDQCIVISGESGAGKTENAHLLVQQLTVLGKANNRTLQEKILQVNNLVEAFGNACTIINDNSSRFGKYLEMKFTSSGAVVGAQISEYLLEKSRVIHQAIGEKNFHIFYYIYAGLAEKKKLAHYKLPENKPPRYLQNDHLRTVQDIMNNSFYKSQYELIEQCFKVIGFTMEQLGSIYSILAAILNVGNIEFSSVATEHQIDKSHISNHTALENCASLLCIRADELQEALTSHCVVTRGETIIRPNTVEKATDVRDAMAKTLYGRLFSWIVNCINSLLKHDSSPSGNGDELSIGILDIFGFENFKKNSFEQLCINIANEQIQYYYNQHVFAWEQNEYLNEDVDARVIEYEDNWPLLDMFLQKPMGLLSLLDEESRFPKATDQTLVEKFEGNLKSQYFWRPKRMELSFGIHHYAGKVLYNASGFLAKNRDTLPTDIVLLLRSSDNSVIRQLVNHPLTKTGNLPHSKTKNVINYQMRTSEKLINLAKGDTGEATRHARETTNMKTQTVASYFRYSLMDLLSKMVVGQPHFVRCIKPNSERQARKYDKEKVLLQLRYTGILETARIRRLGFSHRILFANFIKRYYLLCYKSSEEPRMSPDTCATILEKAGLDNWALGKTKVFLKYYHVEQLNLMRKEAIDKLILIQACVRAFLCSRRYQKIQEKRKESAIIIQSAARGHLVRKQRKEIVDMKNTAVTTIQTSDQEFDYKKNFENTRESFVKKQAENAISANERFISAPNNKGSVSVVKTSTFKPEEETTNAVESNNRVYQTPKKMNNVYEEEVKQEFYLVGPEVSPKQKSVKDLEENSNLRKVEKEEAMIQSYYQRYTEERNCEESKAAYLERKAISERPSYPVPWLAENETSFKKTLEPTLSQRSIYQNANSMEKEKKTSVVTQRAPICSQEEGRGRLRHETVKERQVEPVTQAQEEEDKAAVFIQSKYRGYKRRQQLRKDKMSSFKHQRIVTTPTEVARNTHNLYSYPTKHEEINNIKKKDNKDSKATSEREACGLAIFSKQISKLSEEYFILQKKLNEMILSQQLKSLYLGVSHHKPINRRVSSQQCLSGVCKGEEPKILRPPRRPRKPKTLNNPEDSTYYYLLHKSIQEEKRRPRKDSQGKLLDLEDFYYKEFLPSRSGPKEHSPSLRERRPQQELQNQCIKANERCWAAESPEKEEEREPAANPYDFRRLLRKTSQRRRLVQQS

Sequence of Cyclin-dependent kinase-like 1 (Homo sapiens) (Q00532 whole entry): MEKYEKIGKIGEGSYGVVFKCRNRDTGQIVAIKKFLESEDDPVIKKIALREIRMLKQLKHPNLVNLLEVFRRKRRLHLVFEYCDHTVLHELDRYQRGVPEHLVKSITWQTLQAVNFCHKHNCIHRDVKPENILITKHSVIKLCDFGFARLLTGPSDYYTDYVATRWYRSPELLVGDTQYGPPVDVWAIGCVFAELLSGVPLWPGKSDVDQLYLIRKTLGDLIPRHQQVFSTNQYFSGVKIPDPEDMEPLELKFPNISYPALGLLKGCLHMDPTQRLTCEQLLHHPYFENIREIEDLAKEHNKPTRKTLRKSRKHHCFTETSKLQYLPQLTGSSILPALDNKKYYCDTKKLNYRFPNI
Sequence of ALK tyrosine kinase receptor (Q9UM73 19-1620 limits assumed): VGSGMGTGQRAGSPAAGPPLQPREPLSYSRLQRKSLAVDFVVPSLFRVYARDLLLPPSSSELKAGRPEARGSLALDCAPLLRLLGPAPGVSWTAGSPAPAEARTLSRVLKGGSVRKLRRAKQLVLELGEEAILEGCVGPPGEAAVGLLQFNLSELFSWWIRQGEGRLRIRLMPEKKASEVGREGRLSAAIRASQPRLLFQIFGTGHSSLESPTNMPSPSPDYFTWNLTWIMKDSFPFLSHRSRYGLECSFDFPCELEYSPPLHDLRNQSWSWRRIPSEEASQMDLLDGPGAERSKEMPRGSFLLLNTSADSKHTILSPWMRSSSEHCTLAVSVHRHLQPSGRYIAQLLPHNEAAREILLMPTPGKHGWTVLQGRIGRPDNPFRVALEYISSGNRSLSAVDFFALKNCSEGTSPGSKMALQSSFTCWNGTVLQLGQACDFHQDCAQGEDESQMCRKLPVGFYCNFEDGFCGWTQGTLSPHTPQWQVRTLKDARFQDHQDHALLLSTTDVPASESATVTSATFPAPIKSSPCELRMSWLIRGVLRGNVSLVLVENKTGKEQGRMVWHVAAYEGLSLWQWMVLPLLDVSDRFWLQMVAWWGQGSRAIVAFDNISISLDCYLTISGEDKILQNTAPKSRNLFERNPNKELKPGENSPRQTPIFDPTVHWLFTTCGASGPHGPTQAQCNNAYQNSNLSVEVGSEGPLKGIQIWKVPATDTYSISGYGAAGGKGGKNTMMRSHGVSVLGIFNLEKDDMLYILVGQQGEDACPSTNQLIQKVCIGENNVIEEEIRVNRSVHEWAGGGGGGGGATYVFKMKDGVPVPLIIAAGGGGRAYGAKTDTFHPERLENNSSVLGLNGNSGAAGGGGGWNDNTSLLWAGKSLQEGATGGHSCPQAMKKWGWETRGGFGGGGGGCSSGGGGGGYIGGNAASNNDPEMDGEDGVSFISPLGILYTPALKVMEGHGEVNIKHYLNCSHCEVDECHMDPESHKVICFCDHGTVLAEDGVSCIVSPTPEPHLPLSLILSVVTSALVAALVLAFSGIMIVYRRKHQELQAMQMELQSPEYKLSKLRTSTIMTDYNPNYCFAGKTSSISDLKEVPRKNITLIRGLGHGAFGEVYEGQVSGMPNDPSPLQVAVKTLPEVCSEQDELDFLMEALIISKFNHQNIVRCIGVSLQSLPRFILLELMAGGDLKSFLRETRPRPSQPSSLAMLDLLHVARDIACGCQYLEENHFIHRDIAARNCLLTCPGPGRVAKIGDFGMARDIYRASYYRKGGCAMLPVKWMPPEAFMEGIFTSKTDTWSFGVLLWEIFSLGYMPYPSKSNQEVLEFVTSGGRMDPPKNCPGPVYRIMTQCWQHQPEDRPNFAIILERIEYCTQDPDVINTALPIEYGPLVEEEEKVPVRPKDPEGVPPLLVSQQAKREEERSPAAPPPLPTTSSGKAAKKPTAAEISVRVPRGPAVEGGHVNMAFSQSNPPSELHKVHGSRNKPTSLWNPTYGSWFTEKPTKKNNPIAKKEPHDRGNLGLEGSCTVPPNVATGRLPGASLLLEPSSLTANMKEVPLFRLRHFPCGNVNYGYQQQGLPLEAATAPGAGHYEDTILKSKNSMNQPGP

With `COc1cc(N(C)c2ccnc3ccc(C(F)(F)F)cc23)cc(OC)c1OC` the % binding [1] was 70%.

Work on `COCC(=O)NC/C=C/c1ccc2ncnc(Nc3ccc(Oc4ccc(C)nc4)c(C)c3)c2c1` [CP-724714] yielded a % of control [2] of 100% and a % of control [3] of 100%.

Work on `C=CC(=O)Nc1cc(-n2c(=O)ccc3cnc4ccc(-c5ccc(NS(C)(=O)=O)cc5)cc4c32)ccc1C` yielded a % of control ([4]; at 1 µM) of 100% and a % of control ([4]; at 10 µM) of 99%.

In the case of `Nc1cnc(N2CCc3cc(S(=O)(=O)Nc4c(F)cc(Cl)cc4F)cc(N4CCCC4=O)c32)nc1` [TP-020n], the % of control [5] is reported as 100%.

Molecule `COc1cc(Nc2nc(C)cc(-c3cnn4nc(OC)ccc34)n2)cc(C(F)(F)F)c1` has a % of control [6] of 89%.

`N#Cc1cccc(-c2c[nH]c3ncnc(N4CCOCC4)c23)c1` was tested, and the % of inhibition [7] was -4%.

`CNC(=O)Nc1ccc(-c2nc(N3CC4CCC(C3)O4)c3cnn(C4CCC5(CC4)OCCO5)c3n2)cc1` gave a % of control [8] of 78% and a % of control (Insulin receptor) of 84%.

`CN(C)CCOc1ccc(-c2nc(-c3ccncc3)c(-c3ccc4c(c3)CC/C4=N\O)[nH]2)cc1` showed a % of control [9] of 92%.

In the case of `CCC(=O)N1CCN(c2ccc(-n3c(=O)ccc4cnc5ccc(-c6cnc7ccccc7c6)cc5c43)cc2C(F)(F)F)CC1`, the % of control [10] is reported as 100%.
